Laboratory results as given in PubChem BioAssay (NCI).
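A five-concentration, 48-hour dose response in 96-well plates underlies each endpoint, interpolated linearly between surrounding concentrations. GI50 marks 50% less growth. TGI denotes the concentration required for complete inhibition of growth.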

Tests used:
Assay in all cases: DTP human tumour cell line panel, 48 h
U251 CNS = test system: U251 CNS
OVCAR-5 ovarian = test system: OVCAR-5 ovarian
CAKI-1 renal = test system: CAKI-1 renal
OVCAR-8 ovarian = test system: OVCAR-8 ovarian
SN12C renal = test system: SN12C renal
HCT-116 colon = test system: HCT-116 colon
ACHN renal = test system: ACHN renal
SF-268 CNS = test system: SF-268 CNS
NCI-H226 lung = test system: NCI-H226 lung
HOP-62 NSCLC = test system: HOP-62 NSCLC
UO-31 renal = test system: UO-31 renal
RXF 393 renal = test system: RXF 393 renal
786-0 renal = test system: 786-0 renal
CCRF-CEM leukemia = test system: CCRF-CEM leukemia
OVCAR-3 ovarian = test system: OVCAR-3 ovarian
A549 NSCLC = test system: A549 NSCLC
NCI-H23 lung = test system: NCI-H23 lung
SR leukemia = test system: SR leukemia
SK-MEL-28 melanoma = test system: SK-MEL-28 melanoma
A498 renal = test system: A498 renal
UACC-62 melanoma = test system: UACC-62 melanoma
SF-539 CNS = test system: SF-539 CNS
MCF7 breast = test system: MCF7 breast
HT29 colon = test system: HT29 colon
COLO 205 colon = test system: COLO 205 colon
HCC-2998 colon = test system: HCC-2998 colon
NCI-H522 lung = test system: NCI-H522 lung
RPMI-8226 leukemia = test system: RPMI-8226 leukemia
SK-MEL-2 melanoma = test system: SK-MEL-2 melanoma
TK-10 renal = test system: TK-10 renal
NCI-H460 lung = test system: NCI-H460 lung
MDA-MB-231 breast = test system: MDA-MB-231 breast
EKVX NSCLC = test system: EKVX NSCLC
SNB-75 CNS = test system: SNB-75 CNS
T-47D breast = test system: T-47D breast
BT-549 breast = test system: BT-549 breast
PC-3 prostate = test system: PC-3 prostate
HL-60(TB) leukemia = test system: HL-60(TB) leukemia
MDA-MB-435 = test system: MDA-MB-435
HS 578T breast = test system: HS 578T breast
DU-145 prostate = test system: DU-145 prostate
M14 melanoma = test system: M14 melanoma
HOP-92 NSCLC = test system: HOP-92 NSCLC
HCT-15 colon = test system: HCT-15 colon
NCI/ADR-RES ovarian = test system: NCI/ADR-RES ovarian
MOLT-4 leukemia = test system: MOLT-4 leukemia
MALME-3M melanoma = test system: MALME-3M melanoma
KM12 colon = test system: KM12 colon
SK-MEL-5 melanoma = test system: SK-MEL-5 melanoma
SW-620 colon = test system: SW-620 colon
OVCAR-4 ovarian = test system: OVCAR-4 ovarian
SNB-19 CNS = test system: SNB-19 CNS
UACC-257 melanoma = test system: UACC-257 melanoma
SF-295 CNS = test system: SF-295 CNS
LOX IMVI melanoma = test system: LOX IMVI melanoma
K-562 leukemia = test system: K-562 leukemia
IGROV1 ovarian = test system: IGROV1 ovarian
SK-OV-3 ovarian = test system: SK-OV-3 ovarian

`COc1ccc(C2C(C=O)C(N3CCN(C)CC3)=Nc3nc4ccccc4n32)cc1` (stereo not drawn) was tested, and the TGI (U251 CNS) was 39300 nM, the TGI (OVCAR-5 ovarian) was 59700 nM and the TGI (CAKI-1 renal) was 52400 nM. For the same compound, the TGI (OVCAR-8 ovarian) was 33100 nM, the TGI (SN12C renal) was 40900 nM and the TGI (HCT-116 colon) was 29800 nM. It also gave a TGI (ACHN renal) of 41800 nM, a TGI (SF-268 CNS) of 51600 nM and a TGI (NCI-H226 lung) of 38200 nM. It also gave a TGI (HOP-62 NSCLC) of 28700 nM, a TGI (UO-31 renal) of 32400 nM and a TGI (RXF 393 renal) of 39200 nM. The TGI (786-0 renal) was greater than 100000 nM, the TGI (CCRF-CEM leukemia) was 17800 nM and the TGI (OVCAR-3 ovarian) was 40500 nM. For the same compound, the TGI (A549 NSCLC) was 38500 nM, the TGI (NCI-H23 lung) was 44800 nM and the TGI (SR leukemia) was 2350 nM. For the same compound, the TGI (SK-MEL-28 melanoma) was 34800 nM, the TGI (A498 renal) was 29100 nM and the TGI (UACC-62 melanoma) was 36500 nM. It also gave a TGI (SF-539 CNS) of 54500 nM, a TGI (MCF7 breast) of 36300 nM and a TGI (HT29 colon) of 36800 nM. It also gave a TGI (COLO 205 colon) of 36000 nM, a TGI (HCC-2998 colon) of 33900 nM and a TGI (NCI-H522 lung) of 25600 nM. It also gave a TGI (RPMI-8226 leukemia) of 17300 nM, a TGI (SK-MEL-2 melanoma) of 31200 nM and a TGI (TK-10 renal) of 40000 nM. It also gave a TGI (NCI-H460 lung) of 91100 nM, a TGI (MDA-MB-231 breast) of 31400 nM and a TGI (EKVX NSCLC) of 97300 nM. For the same compound, the TGI (SNB-75 CNS) was 31300 nM, the TGI (T-47D breast) was 40600 nM and the TGI (BT-549 breast) was 29400 nM. The TGI (PC-3 prostate) was 36900 nM, the TGI (HL-60(TB) leukemia) was 18400 nM and the TGI (MDA-MB-435) was 39700 nM. The TGI (HS 578T breast) was greater than 100000 nM, the TGI (DU-145 prostate) was 49300 nM and the TGI (M14 melanoma) was 41500 nM. The TGI (HOP-92 NSCLC) was 24300 nM, the TGI (HCT-15 colon) was 46500 nM and the TGI (NCI/ADR-RES ovarian) was 53700 nM. For the same compound, the TGI (MOLT-4 leukemia) was 12300 nM, the TGI (MALME-3M melanoma) was 26300 nM and the TGI (KM12 colon) was 50600 nM. For the same compound, the TGI (SK-MEL-5 melanoma) was 31500 nM, the TGI (SW-620 colon) was 65900 nM and the TGI (OVCAR-4 ovarian) was 48200 nM. The TGI (SNB-19 CNS) was 41000 nM, the TGI (UACC-257 melanoma) was 41000 nM and the TGI (SF-295 CNS) was 50900 nM. For the same compound, the TGI (LOX IMVI melanoma) was 34100 nM, the TGI (K-562 leukemia) was 14900 nM and the TGI (IGROV1 ovarian) was 31700 nM.

Work on `COc1cc2c(cc1OCCCN1CCN(c3ncnc4ccccc34)CC1)N=CC1CCCN1C2=O` (stereo not drawn) yielded a GI50 (OVCAR-5 ovarian) of 26.3 nM, a TGI (OVCAR-5 ovarian) of 71.7 nM and a GI50 (CAKI-1 renal) of 19.1 nM. For the same compound, the TGI (CAKI-1 renal) was 57.4 nM, the GI50 (OVCAR-8 ovarian) was 43 nM and the TGI (OVCAR-8 ovarian) was greater than 53600 nM. For the same compound, the GI50 (SK-OV-3 ovarian) was 32.6 nM, the TGI (SK-OV-3 ovarian) was 6780 nM and the GI50 (SN12C renal) was 37.4 nM. The TGI (SN12C renal) was 3970 nM, the GI50 (ACHN renal) was 42.6 nM and the TGI (ACHN renal) was 564 nM. The GI50 (SF-268 CNS) was 33.9 nM, the TGI (SF-268 CNS) was 625 nM and the GI50 (NCI-H226 lung) was 34.8 nM. The TGI (NCI-H226 lung) was 247 nM, the GI50 (HOP-62 NSCLC) was 28.2 nM and the TGI (HOP-62 NSCLC) was 278 nM. The GI50 (UO-31 renal) was 75.4 nM, the TGI (UO-31 renal) was 558 nM and the GI50 (RXF 393 renal) was 20.5 nM. For the same compound, the TGI (RXF 393 renal) was 39.4 nM, the GI50 (CCRF-CEM leukemia) was less than 14.6 nM and the TGI (CCRF-CEM leukemia) was 480 nM. The GI50 (OVCAR-3 ovarian) was 26.9 nM, the TGI (OVCAR-3 ovarian) was 59.5 nM and the GI50 (A549 NSCLC) was 35.6 nM. It also gave a TGI (A549 NSCLC) greater than 47900 nM, a GI50 (NCI-H23 lung) of 26.8 nM and a TGI (NCI-H23 lung) of 81.9 nM. For the same compound, the GI50 (SR leukemia) was less than 14.9 nM, the TGI (SR leukemia) was 96.8 nM and the GI50 (SK-MEL-28 melanoma) was 33.6 nM. It also gave a TGI (SK-MEL-28 melanoma) of 103 nM, a TGI (A498 renal) of 16.4 nM and a GI50 (UACC-62 melanoma) of 18 nM. For the same compound, the TGI (UACC-62 melanoma) was 37.9 nM, the GI50 (SF-539 CNS) was 27.1 nM and the TGI (SF-539 CNS) was 69.6 nM. The GI50 (MCF7 breast) was 18.9 nM, the TGI (MCF7 breast) was 1020 nM and the GI50 (HT29 colon) was 29.8 nM. The GI50 (COLO 205 colon) was 20.3 nM, the TGI (COLO 205 colon) was 44.6 nM and the GI50 (HCC-2998 colon) was 19 nM. It also gave a TGI (HCC-2998 colon) of 38.1 nM, a TGI (NCI-H522 lung) of 28.5 nM and a GI50 (RPMI-8226 leukemia) of less than 11.9 nM. The TGI (RPMI-8226 leukemia) was 35.3 nM, the GI50 (SK-MEL-2 melanoma) was 64.6 nM and the TGI (SK-MEL-2 melanoma) was 512 nM. It also gave a GI50 (TK-10 renal) of 29.3 nM, a TGI (TK-10 renal) of 1080 nM and a GI50 (NCI-H460 lung) of 28.2 nM. It also gave a TGI (NCI-H460 lung) of 298 nM, a GI50 (MDA-MB-231 breast) of 20.5 nM and a TGI (MDA-MB-231 breast) of 73.6 nM. For the same compound, the GI50 (EKVX NSCLC) was 152 nM, the TGI (EKVX NSCLC) was 677 nM and the GI50 (SNB-75 CNS) was 35.7 nM. For the same compound, the TGI (SNB-75 CNS) was 168 nM, the GI50 (T-47D breast) was 22.2 nM and the TGI (T-47D breast) was 75.7 nM. For the same compound, the GI50 (BT-549 breast) was 24.8 nM, the TGI (BT-549 breast) was 89.5 nM and the GI50 (PC-3 prostate) was 23.2 nM. It also gave a TGI (PC-3 prostate) of 97.3 nM, a GI50 (HL-60(TB) leukemia) of 30.7 nM and a GI50 (MDA-MB-435) of 21.4 nM. For the same compound, the TGI (MDA-MB-435) was 49.8 nM, the GI50 (HS 578T breast) was less than 17.7 nM and the TGI (HS 578T breast) was 56.8 nM. It also gave a GI50 (DU-145 prostate) of 27.8 nM, a TGI (DU-145 prostate) of 311 nM and a GI50 (M14 melanoma) of 30.3 nM. For the same compound, the TGI (M14 melanoma) was 138 nM, the GI50 (HOP-92 NSCLC) was 19.9 nM and the TGI (HOP-92 NSCLC) was 52.9 nM. It also gave a GI50 (NCI/ADR-RES ovarian) of 373 nM, a TGI (NCI/ADR-RES ovarian) of 7110 nM and a GI50 (MOLT-4 leukemia) of 17.5 nM. The TGI (MOLT-4 leukemia) was 59.6 nM, the GI50 (MALME-3M melanoma) was 19.8 nM and the TGI (MALME-3M melanoma) was 47.9 nM. For the same compound, the GI50 (KM12 colon) was 32.5 nM, the TGI (KM12 colon) was 183 nM and the GI50 (SK-MEL-5 melanoma) was 16.8 nM. For the same compound, the TGI (SK-MEL-5 melanoma) was 32.3 nM, the GI50 (SW-620 colon) was 19.8 nM and the TGI (SW-620 colon) was 55.6 nM. It also gave a GI50 (OVCAR-4 ovarian) of 63.3 nM, a TGI (OVCAR-4 ovarian) of 8630 nM and a GI50 (SNB-19 CNS) of 41 nM. It also gave a TGI (SNB-19 CNS) of 11200 nM, a GI50 (UACC-257 melanoma) of 150 nM and a TGI (UACC-257 melanoma) of 737 nM. For the same compound, the GI50 (SF-295 CNS) was 25.8 nM, the TGI (SF-295 CNS) was 54.5 nM and the GI50 (K-562 leukemia) was 26.2 nM. The GI50 (IGROV1 ovarian) was 12.6 nM and the TGI (IGROV1 ovarian) was 26.9 nM.
